How the values were obtained:
Type in all cases: biochemical
[1] = target: T1, p110β/p85α (PI3Kβ) (Homo sapiens, UniProt P42338); experiment: HTRF assay, p110β/p85α; conditions: read-out: PI3Kβ HTRF IC50 Inhibition Designation
T1 construct: purchased Millipore 14-603
Experimental: (§1) The mechanics of the assay platform are best described by the vendor (Millipore, Billerica, Mass.) on their website at the following URL: http://www.millipore.com/coa/tech1/74jt4z.
(§2) Briefly, Stop solution (Stop A, #33-007 and Stop B, #33-009; 3:1 ratio) and Detection Mix (DMC, #33-015 with DMA, #33-011 and DMB, #33-013; 18:1:1 ratio) were prepared as recommended by the manufacturer ˜2 hrs prior to use. […] Lipid kinase reactions were started with the addition of 5 μL of ATP solution, mixed for 15 sec on a rotary plate shaker and incubated for 15-30 minutes at 25° C. Next, reactions were stopped with a 5 μL addition of Stop solution followed by a 5 μL volume of Detection Mix. […] At the conclusion of each assay, the HTRF ratio from fluorescence emission values for each well was calculated and % Inhibition determined from averaged controls wells. % Inhibition values for each compound re then plotted against inhibitor concentration to estimate IC50 from log [Inhibitor] vs Response, Variable Slope model in GraphPad Prism from GraphPad Software (San Diego, Calif.).

[2] = target: T2, p120γ (PI3Kγ) (Homo sapiens, UniProt P48736); experiment: HTRF assay, p120γ; conditions: PI3Kγ; read-out: PI3Kγ HTRF IC50 Inhibition Designation
T2 construct: purchased BPS Bioscience 40625
T2 sequence (P48736 whole entry): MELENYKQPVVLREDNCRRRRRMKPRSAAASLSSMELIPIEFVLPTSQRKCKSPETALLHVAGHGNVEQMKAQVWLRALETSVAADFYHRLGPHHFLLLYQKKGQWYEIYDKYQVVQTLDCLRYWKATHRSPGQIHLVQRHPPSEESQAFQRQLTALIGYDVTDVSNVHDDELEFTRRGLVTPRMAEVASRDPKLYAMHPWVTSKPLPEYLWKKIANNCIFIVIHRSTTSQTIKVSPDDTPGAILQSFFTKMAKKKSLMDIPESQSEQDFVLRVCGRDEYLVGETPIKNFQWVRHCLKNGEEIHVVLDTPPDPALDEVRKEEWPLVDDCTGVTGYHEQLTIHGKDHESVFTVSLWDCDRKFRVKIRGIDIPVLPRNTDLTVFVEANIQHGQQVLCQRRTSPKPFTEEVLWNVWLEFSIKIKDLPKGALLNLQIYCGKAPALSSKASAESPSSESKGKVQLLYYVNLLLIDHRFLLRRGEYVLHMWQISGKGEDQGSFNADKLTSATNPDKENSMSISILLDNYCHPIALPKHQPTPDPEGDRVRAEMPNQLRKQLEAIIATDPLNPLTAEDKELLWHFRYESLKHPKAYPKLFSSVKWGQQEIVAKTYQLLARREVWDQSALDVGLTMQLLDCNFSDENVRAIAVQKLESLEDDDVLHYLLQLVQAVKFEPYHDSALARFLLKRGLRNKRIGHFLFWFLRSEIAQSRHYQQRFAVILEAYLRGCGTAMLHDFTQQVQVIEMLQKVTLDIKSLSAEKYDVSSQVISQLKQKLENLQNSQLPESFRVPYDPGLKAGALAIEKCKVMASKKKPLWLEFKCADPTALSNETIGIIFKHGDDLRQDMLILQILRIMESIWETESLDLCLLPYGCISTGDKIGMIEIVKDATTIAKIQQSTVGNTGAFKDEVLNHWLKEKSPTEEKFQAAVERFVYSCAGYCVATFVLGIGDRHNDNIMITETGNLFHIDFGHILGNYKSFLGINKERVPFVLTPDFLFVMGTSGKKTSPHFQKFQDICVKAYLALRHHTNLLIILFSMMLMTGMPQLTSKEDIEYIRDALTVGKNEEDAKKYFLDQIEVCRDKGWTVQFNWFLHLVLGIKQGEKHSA
Excerpt: The protocol below describes an end-point, competition-binding HTRF assay used to measure inherent potency of test compounds against active p110α/p85α, p110β/p85α, p120γ enzymes. The mechanics of the assay platform are best described by the vendor (Millipore, Billerica, Mass.) on their website at the following URL: http://www.millipore.com/coa/tech1/74jt4z.
Briefly, Stop solution (Stop A, #33-007 and Stop B, #33-009; 3:1 ratio) and Detection Mix (DMC, #33-015 with DMA, #33-011 and DMB, #33-013; 18:1:1 ratio) were prepared as recommended by the manufacturer ˜2 hrs prior to use. Additionally, 1× reaction buffer (4× buffer stock #33-003), a 1.4× stock of enzyme from BPS Bioscience (San Diego, Ca) or Millipore (Billerica, Mass.) with di-C8-PIP2 lipid substrate (#33-005), and a 4×ATP solution (#A7699) Sigma/Aldrich (St. Louis, Mo.) were prepared in 1×reaction buffer. 15 μL of enzyme and lipid substrate mix were pre-incubated in a Corning (#3573) 384-well, black, non-treated microtiter plate (Corning, N.Y.) for 30 min at 25° C. with a 0.5 μL volume of 50% DMSO and serially diluted compounds prepared in 50%-75% DMSO. Lipid kinase reactions were started with the addition of 5 μL of ATP solution, mixed for 15 sec on a rotary plate shaker and incubated for 15-30 minutes at 25° C. Next, reactions were stopped with a 5 μL addition of Stop solution followed by a 5 μL volume of Detection Mix. Stopped reactions were equilibrated for 1 and 18 hrs at room temperature and then read in a Synergy4 plate reader from BioTek (Winooski, Vt.) at λex330-80/λem620-35 and λem665-7.5. At the conclusion of each assay, the HTRF ratio from fluorescence emission values for each well was calculated and % Inhibition determined from averaged controls wells. % Inhibition values for each compound re then plotted against inhibitor concentration to estimate IC50 from log [Inhibitor] vs Response, Variable Slope model in GraphPad Prism from GraphPad Software (San Diego, Calif.).
Reagents Used in Optimized Protocol: • [p120γ]=1-4 nM, [ATP]=50 μM, [di-C8-PIP2]=10 μM • (40625; BPS Bioscience)

[3] = target: T3, p110α/p85α (PI3Kα) (Homo sapiens, UniProt P42336); experiment: HTRF assay, p110α/p85α; conditions: read-out: PI3Kα-HTRF-IC50 nM Inhibition Designation
T3 construct: purchased BPS Bioscience or Millipore 40620 (BPS Bioscience) or 14-602 (Millipore)
T3 sequence (P42336 whole entry): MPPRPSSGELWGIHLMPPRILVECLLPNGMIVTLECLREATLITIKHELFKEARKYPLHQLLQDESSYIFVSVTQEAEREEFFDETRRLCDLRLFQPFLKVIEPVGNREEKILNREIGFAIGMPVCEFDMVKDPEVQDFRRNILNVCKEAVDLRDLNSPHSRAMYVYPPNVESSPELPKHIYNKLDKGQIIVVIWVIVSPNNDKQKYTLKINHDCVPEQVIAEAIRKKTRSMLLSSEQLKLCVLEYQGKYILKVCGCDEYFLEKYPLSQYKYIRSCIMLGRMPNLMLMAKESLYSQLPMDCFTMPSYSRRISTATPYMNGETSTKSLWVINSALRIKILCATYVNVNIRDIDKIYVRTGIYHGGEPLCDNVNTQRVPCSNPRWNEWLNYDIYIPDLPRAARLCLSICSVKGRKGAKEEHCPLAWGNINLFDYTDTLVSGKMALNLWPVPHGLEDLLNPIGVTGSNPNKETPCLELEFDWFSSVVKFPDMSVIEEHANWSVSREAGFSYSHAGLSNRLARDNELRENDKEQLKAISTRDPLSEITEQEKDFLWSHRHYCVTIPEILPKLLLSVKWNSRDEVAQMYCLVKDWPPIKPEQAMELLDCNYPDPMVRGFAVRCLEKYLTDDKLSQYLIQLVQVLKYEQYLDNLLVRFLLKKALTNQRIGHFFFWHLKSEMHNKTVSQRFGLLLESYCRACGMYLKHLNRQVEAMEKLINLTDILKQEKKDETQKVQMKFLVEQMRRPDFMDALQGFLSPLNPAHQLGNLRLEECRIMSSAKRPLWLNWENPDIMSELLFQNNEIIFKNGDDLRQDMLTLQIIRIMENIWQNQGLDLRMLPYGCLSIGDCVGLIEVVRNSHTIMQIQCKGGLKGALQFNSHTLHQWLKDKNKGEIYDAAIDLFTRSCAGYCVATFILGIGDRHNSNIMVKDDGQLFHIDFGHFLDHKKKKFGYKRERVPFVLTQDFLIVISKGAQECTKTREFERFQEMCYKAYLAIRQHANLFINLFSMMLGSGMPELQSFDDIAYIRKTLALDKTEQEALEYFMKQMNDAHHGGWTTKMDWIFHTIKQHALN
T3 sequence (P27986 whole entry partner): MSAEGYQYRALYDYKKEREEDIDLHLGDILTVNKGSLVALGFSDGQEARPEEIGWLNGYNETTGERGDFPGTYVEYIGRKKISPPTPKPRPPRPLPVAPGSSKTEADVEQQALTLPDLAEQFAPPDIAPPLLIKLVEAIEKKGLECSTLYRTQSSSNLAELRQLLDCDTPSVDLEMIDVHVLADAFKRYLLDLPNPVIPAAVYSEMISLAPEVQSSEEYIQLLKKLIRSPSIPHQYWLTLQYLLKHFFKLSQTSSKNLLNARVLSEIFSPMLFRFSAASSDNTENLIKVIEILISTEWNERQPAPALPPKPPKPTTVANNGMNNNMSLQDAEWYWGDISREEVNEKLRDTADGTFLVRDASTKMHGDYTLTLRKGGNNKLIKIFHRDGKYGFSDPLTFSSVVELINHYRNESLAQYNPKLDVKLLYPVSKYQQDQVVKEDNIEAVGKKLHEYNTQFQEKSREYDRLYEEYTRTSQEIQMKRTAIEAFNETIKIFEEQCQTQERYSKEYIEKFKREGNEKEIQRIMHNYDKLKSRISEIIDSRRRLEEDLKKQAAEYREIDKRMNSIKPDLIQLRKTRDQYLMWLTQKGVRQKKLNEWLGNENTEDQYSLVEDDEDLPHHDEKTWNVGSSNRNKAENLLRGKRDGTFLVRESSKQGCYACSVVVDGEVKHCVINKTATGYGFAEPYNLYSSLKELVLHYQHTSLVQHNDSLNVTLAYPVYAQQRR
Experimental: HTRF Assay Protocol for Potency Assessment Against the Active Form of p110α/p85α:
as §1, §2

T1 sequence (P42338 whole entry): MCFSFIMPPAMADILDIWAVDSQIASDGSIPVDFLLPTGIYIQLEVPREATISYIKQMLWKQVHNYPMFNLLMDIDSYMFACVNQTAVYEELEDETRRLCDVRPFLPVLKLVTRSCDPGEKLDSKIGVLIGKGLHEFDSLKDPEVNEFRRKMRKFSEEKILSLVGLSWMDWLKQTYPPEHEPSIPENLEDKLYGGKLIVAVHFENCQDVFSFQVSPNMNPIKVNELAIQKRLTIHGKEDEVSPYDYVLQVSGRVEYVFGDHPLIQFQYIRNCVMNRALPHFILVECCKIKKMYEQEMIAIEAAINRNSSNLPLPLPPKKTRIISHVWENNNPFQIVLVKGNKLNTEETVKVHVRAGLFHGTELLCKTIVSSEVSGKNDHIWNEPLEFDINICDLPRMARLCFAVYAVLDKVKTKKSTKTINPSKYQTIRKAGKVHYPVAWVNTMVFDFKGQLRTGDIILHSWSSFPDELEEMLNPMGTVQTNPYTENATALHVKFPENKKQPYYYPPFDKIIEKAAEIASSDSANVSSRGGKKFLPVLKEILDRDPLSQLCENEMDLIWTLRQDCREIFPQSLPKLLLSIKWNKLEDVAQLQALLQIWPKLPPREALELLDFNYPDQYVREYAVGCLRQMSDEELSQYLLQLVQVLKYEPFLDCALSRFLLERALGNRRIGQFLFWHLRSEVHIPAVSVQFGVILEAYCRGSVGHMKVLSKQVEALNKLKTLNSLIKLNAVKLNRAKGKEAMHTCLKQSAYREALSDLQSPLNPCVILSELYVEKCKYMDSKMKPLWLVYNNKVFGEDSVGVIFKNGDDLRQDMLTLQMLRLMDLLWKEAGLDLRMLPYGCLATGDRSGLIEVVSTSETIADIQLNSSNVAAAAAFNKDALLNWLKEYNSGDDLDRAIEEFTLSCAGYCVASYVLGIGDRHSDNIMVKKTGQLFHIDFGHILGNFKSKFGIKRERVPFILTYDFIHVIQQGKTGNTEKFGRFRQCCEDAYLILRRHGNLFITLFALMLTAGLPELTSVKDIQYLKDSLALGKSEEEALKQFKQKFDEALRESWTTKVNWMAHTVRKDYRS
T1 sequence (P27986 whole entry partner): as the sequence (P27986 whole entry partner) above

IC50 [1] [µM]	IC50 [2] [µM]	IC50 [3] [nM]	Structure (SMILES)
0.1 to 1	–	–	COc1ccc(C(=O)N2C[C@@H]3C[C@H]2C(=O)O3)cc1-n1c(CSc2ncnc3[nH]cnc23)nc2cccc(Cl)c2c1=O [XXXVII-1, (1S,4S)-5-(3-(2-((9H-purin-6-ylthio)methyl)-5-chloro-4-oxoquinazolin-3(4H)-yl)-4-methoxybenzoyl)-2-oxa-5-azabicyclo[2.2.1]heptan-3-one]
0.1 to 1	0.1 to 1	–	COC(=O)N1C(=O)CC[C@@H]1C(=O)N1CCN(Cc2cc3nc(-c4cnc(N)nc4)nc(N4CCOCC4)c3s2)CC1 [XXII-28]
0.1 to 1	0.1 to 1	–	Nc1ncc(-c2nc(N3CCOCC3)c3sc(CN4CCN(C(=O)C5CCC(=O)S5)CC4)cc3n2)cn1 (stereo not drawn) [XXII-32, 5-(4-((2-(2-aminopyrimidin-5-yl)-4-morpholinothieno[3,2-d]pyrimidin-6-yl)methyl)piperazine-1-carbonyl)dihydrothiophen-2(3H)-one]
0.1 to 1	0.1 to 1	–	CC(C)Oc1c(N2CCN(Cc3cc4nc(-c5cnc(N)nc5)nc(N5CCOCC5)c4s3)CC2)c(=O)c1=O [XXII-26, 3-(4-((2-(2-aminopyrimidin-5-yl)-4-morpholinothieno[3,2-d]pyrimidin-6-yl)methyl)piperazin-1-yl)-4-isopropoxycyclobut-3-ene-1,2-dione]
–	0.1 to 1	100 to 1000	CC1(C)Cc2nc(N3CCOc4ccc(NC(=O)[C@H]5CCC(=O)O5)cc43)sc2C(=O)N1 [XXIII-2]
0.1 to 1	0.1 to 1	–	O=C1CC[C@H](C(=O)N2CCN(Cc3cc4nc(-c5cccc6[nH]ncc56)nc(N5CCOCC5)c4s3)CC2)O1 [XXII-22]
–	0.1 to 1	100 to 1000	O=C1CC[C@@H](C(=O)N2CCN(c3ccnc4ccc(/C=C5\SC(Nc6c(Cl)cccc6Cl)=NC5=O)cc34)CC2)O1 [XXIV-2]
0.1 to 1	–	–	COc1ccc(NC(=O)[C@H]2CCC(=O)O2)cc1-n1c(CSc2ncnc3[nH]cnc23)nc2cccc(Cl)c2c1=O [XXXVII-2, (R)-N-(3-(2-((9H-purin-6-ylthio)methyl)-5-chloro-4-oxoquinazolin-3(4H)-yl)-4-methoxyphenyl)-5-oxotetrahydrofuran-2-carboxamide]
0.1 to 1	0.1 to 1	–	Nc1ncc(-c2nc(N3CCOCC3)c3sc(CN4CCN(C(=O)C5CSC(=O)C5)CC4)cc3n2)cn1 (stereo not drawn) [XXII-31, 4-(4-((2-(2-aminopyrimidin-5-yl)-4-morpholinothieno[3,2-d]pyrimidin-6-yl)methyl)piperazine-1-carbonyl)dihydrothiophen-2(3H)-one]
–	0.1 to 1	100 to 1000	C=CS(=O)(=O)Oc1cccc(-c2nc(N3CCOCC3)c3sc(CN(C)S(=O)(=O)C=C)cc3n2)c1 [XXII-9]
< 0.01	–	–	C=CC(=O)Nc1ccc(-c2ccnc3ccc(-c4cnc(OC)c(NS(=O)(=O)c5ccc(F)cc5F)c4)cc23)cc1 [XXV-14, N-(4-(6-(5-(2,4-difluorophenylsulfonamido)-6-methoxypyridin-3-yl)quinolin-4-yl)phenyl) acrylamide]
–	0.1 to 1	100 to 1000	C=CS(=O)(=O)N1CCN(Cc2cc3nc(-c4cccc5[nH]ncc45)nc(N4CCOCC4)c3s2)CC1 [XXII-8, 4-(2-(1H-indazol-4-yl)-6-((4-(vinylsulfonyl)piperazin-1-yl)methyl)thieno[3,2-d]pyrimidin-4-yl)morpholine]
0.1 to 1	–	–	COc1ccc(NC(=O)N2C[C@@H]3C[C@H]2C(=O)O3)cc1-n1c(CSc2ncnc3[nH]cnc23)nc2cccc(Cl)c2c1=O [XXXVII-4, (1S,4S)-N-(3-(2-((9H-purin-6-ylthio)methyl)-5-chloro-4-oxoquinazolin-3(4H)-yl)-4-methoxyphenyl)-3-oxo-2-oxa-5-azabicyclo[2.2.1]heptane-5-carboxamide]

More lines, now with the values behind:

Structure (SMILES)	IC50 [1] [µM]	IC50 [2] [µM]	IC50 [3] [nM]
COc1c(OCCCC(=O)N2C[C@@H]3C[C@H]2C(=O)O3)ccc2c1N=C(NC(=O)c1cccnc1)N1CCN=C21 [XXVII-14, N-(7-methoxy-8-(4-oxo-4-((1S,4S)-3-oxo-2-oxa-5-azabicyclo[2.2.1]heptan-5-yl)butoxy)-2,3-dihydroimidazo[1,2-c]quinazolin-5-yl)nicotinamide]	0.1 to 1	–	–
C/C=C/S(=O)(=O)N1CCN(Cc2cc3nc(-c4cnc(N)nc4)nc(N4CCOCC4)c3s2)CC1 [XXII-25, (E)-5-(4-morpholino-6-((4-(prop-1-enylsulfonyl)piperazin-1-yl)methyl)thieno[3,2-d]pyrimidin-2-yl)pyrimidin-2-amine]	0.1 to 1	0.01 to 0.1	–
CC1(C)Cc2nc(N3CCOc4ccc(C(=O)N5C[C@@H]6C[C@H]5C(=O)O6)cc43)sc2C(=O)N1 [XXIII-4, (1S,4S)-5-(4-(6,6-dimethyl-4-oxo-4,5,6,7-tetrahydrothiazolo[5,4-c]pyridin-2-yl)-3,4-dihydro-2H-benzo[b][1,4]oxazine-6-carbonyl)-2-oxa-5-azabicyclo[2.2.1]heptan-3-one]	–	0.1 to 1	100 to 1000
CC1(C)Cc2nc(N3CCOc4ccc(-c5ccc(C(=O)N6C[C@H]7C[C@@H]6C(=O)O7)cc5)cc43)sc2C(=O)N1 [XXIII-7]	–	1 to 10	1000 to 10000
CC(C)Oc1c(N2CCN(Cc3cc4nc(-c5cccc6[nH]ncc56)nc(N5CCOCC5)c4s3)CC2)c(=O)c1=O [XXII-15]	–	0.1 to 1	10 to 100
COc1ncc(-c2ccc3nccc(-c4ccc(C(=O)N5C[C@@H]6C[C@H]5C(=O)O6)cc4)c3c2)cc1NS(=O)(=O)c1ccc(F)cc1F [XXV-13, 2,4-difluoro-N-(2-methoxy-5-(4-(4-((1S,4S)-3-oxo-2-oxa-5-azabicyclo[2.2.1]heptane-5-carbonyl)phenyl)quinolin-6-yl)pyridin-3-yl)benzenesulfonamide]	< 0.01	–	–
COc1c(OCCCC(=O)N2C[C@H]3C[C@@H]2C(=O)O3)ccc2c1N=C(NC(=O)c1cccnc1)N1CCN=C21 [XXVII-13, N-(7-methoxy-8-(4-oxo-4-((1R,4R)-3-oxo-2-oxa-5-azabicyclo[2.2.1]heptan-5-yl)butoxy)-2,3-dihydroimidazo[1,2-c]quinazolin-5-yl)nicotinamide]	0.1 to 1	–	–
CC1(C)Cc2nc(N3CCOc4ccc(NC(=O)[C@@H]5CCC(=O)O5)cc43)sc2C(=O)N1 [XXIII-1]	–	0.1 to 1	100 to 1000
CC1(C)Cc2nc(N3CCOc4ccc(C(=O)N5C[C@H]6C[C@@H]5C(=O)O6)cc43)sc2C(=O)N1 [XXIII-3]	–	0.1 to 1	100 to 1000
COc1ncc(-c2ccc3nccc(-c4ccc(C(=O)N5C[C@H]6C[C@@H]5C(=O)O6)cc4)c3c2)cc1NS(=O)(=O)c1ccc(F)cc1F [XXV-15, 2,4-difluoro-N-(2-methoxy-5-(4-(4-((1R,4R)-3-oxo-2-oxa-5-azabicyclo[2.2.1]heptane-5-carbonyl)phenyl)quinolin-6-yl)pyridin-3-yl)benzenesulfonamide]	< 0.01	–	–
CN(Cc1cc2nc(-c3cccc(O)c3)nc(N3CCOCC3)c2s1)C(=O)CCC(=O)N1CCC1=O [XXII-24, N-((2-(3-hydroxyphenyl)-4-morpholinothieno[3,2-d]pyrimidin-6-yl)methyl)-N-methyl-4-oxo-4-(2-oxoazetidin-1-yl)butanamide]	0.1 to 1	–	–
O=C1O[C@H]2C[C@@H]1N(Cc1cc(O)cc(-c3nc(N4CCOCC4)c4sccc4n3)c1)C2 [XXII-20]	–	1 to 10	100 to 1000
COc1ccc(NC(=O)[C@@H]2CCC(=O)O2)cc1-n1c(CSc2ncnc3[nH]cnc23)nc2cccc(Cl)c2c1=O [XXXVII-3, (S)-N-(3-(2-((9H-purin-6-ylthio)methyl)-5-chloro-4-oxoquinazolin-3(4H)-yl)-4-methoxyphenyl)-5-oxotetrahydrofuran-2-carboxamide]	0.1 to 1	–	–
